Values quoted from earlier work, collected in patent publication US20190105277A1, “PHARMACEUTICAL COMPOSITION COMPRISING AN ATYPICAL ANTIPSYCHOTIC AGENT AND METHOD FOR THE PREPARATION THEREOF” (PHARMATHEN S.A., priority 2016, published 2019).
Where two headings read alike, the source gives them in different places.

solubility (in 0.1N HCl): slightly soluble | solubility (in dichloromethane): sparingly soluble | solubility (in water): insoluble
Structure (SMILES): Cc1nc2n(c(=O)c1CCN1CCC(c3noc4cc(F)ccc34)CC1)CCCC2O (stereo not drawn) [Paliperidone, 3-[2-[4-(6-fluoro-1,2-benzisoxazol-3-yl)-1-piperidinyl]ethyl]-6,7,8,9-tetrahydro-9-hydroxy-2-methyl-4H-pyrido[1,2-a]pyrimidin-4-one]
